One may read the IC50 as the concentration that gives 50% inhibition.

Here are results for six compounds from PMC11558128 (Advanced Science, 2024).

The test system of data set [1] is acutely isolated rat cardiomyocytes. To be noted: 3 mM, n = 6.
The next data set concerns the target T1, rKv4.2 (Rattus norvegicus, UniProt Q63881).
T1 construct: expressed in transfected cells; host or cells: HEK293T
T1 sequence (Q63881 1-630): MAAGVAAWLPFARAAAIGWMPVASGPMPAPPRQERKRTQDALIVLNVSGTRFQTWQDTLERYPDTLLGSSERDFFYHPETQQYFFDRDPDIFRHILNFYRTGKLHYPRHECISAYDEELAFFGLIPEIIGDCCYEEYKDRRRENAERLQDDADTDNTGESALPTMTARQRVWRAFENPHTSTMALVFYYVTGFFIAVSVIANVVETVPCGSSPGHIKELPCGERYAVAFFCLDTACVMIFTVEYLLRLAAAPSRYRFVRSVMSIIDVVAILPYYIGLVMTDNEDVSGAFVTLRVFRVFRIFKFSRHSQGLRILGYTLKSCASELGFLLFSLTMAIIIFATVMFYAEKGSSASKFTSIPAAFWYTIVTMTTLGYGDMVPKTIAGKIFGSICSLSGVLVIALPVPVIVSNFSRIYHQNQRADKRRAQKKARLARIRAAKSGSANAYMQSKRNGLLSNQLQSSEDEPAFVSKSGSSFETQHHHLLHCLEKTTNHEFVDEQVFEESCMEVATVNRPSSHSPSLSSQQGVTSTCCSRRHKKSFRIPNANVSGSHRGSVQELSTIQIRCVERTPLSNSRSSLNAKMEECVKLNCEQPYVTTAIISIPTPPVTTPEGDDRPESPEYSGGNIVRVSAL
The data set is described as follows: cell-based. The note with it: SEM; for IC50: whole-cell patch clamp, HEK293T, n = 3-8. A general note: The patch-clamp technique gives a direct electrical read-out from membranes.

The target in the next data set is T2, rKv4.3 (Rattus norvegicus, UniProt Q62897).
T2 construct: expressed in transfected cells; host or cells: HEK293T
T2 sequence (Q62897 1-655): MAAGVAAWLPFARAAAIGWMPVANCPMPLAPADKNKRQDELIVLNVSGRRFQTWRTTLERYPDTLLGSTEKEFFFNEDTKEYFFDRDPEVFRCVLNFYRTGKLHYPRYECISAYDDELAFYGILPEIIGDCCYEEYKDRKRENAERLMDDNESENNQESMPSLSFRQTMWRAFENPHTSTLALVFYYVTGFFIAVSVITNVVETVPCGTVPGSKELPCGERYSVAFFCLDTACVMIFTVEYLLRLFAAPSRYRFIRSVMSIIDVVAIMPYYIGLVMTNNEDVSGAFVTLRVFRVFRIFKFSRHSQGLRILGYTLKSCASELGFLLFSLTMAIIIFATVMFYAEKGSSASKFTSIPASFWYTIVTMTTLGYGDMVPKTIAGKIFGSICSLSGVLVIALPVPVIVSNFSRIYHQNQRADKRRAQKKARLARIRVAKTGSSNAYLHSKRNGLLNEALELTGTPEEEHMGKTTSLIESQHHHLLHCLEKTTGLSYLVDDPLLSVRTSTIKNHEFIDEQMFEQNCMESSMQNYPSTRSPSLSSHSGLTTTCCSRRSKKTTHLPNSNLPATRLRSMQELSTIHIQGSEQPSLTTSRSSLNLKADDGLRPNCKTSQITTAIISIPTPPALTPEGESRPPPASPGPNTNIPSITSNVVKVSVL
The data set can be described thus: cell-based.

The subject of data set [2] is other Kv channels (hKv1.1-1.5, rKv2.1, hKv3.1-3.4, mKv4.1, hKv7.2 and hERG).
Data set [3] has as its target T3, hNav1.7 (Homo sapiens, UniProt Q15858).
T3 construct: expressed in transfected cells; host or cells: HEK293T
Set-up: method as in 2 sources, one per row (each row's own in cited_ref): ref 11c (a number printed in a supplementary file, which may have a reference list of its own: not looked up in the article's list) ||| ref 11c = [11]; PMID 27129258; doi:10.1074/jbc.M116.725978; 11 a) G. L. Adams , P. S. Pall , S. M. Grauer , X. Zhou , J. E. Ballard , M. Vavrek , R. L. Kraus , P. Morissette , N. Li , S. Colarusso , E. Bianchi , A. Palani , R. Klein , C. T. John , D. Wang , M. To be noted: vs HNTX-III; ref 11c; cited from earlier work.

Data set [4] concerns the target T3, hNav1.7. The data set is described as follows: cell-based. The note with it: whole-cell patch clamp, HEK293T, SEM.
Where [5] appears, read: same toxin concentrations (footnote b160), mean ± S.E.M., SEM.

Each structure is given as a SMILES string. Read-outs that look alike come from different tables or passages of the source. Positions of bridges follow the written chain, without caps; N, C: chain ends. Residues, ends and D or L forms follow the SMILES beside them.

T3 sequence (O60939 30-215): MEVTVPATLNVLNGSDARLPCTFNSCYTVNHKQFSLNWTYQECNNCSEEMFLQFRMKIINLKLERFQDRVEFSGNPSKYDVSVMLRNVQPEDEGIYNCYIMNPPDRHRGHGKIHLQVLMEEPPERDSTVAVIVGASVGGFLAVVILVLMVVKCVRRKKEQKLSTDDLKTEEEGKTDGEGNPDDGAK
T3 sequence (Q15858 other isoform, or with tags, fused parts or gaps): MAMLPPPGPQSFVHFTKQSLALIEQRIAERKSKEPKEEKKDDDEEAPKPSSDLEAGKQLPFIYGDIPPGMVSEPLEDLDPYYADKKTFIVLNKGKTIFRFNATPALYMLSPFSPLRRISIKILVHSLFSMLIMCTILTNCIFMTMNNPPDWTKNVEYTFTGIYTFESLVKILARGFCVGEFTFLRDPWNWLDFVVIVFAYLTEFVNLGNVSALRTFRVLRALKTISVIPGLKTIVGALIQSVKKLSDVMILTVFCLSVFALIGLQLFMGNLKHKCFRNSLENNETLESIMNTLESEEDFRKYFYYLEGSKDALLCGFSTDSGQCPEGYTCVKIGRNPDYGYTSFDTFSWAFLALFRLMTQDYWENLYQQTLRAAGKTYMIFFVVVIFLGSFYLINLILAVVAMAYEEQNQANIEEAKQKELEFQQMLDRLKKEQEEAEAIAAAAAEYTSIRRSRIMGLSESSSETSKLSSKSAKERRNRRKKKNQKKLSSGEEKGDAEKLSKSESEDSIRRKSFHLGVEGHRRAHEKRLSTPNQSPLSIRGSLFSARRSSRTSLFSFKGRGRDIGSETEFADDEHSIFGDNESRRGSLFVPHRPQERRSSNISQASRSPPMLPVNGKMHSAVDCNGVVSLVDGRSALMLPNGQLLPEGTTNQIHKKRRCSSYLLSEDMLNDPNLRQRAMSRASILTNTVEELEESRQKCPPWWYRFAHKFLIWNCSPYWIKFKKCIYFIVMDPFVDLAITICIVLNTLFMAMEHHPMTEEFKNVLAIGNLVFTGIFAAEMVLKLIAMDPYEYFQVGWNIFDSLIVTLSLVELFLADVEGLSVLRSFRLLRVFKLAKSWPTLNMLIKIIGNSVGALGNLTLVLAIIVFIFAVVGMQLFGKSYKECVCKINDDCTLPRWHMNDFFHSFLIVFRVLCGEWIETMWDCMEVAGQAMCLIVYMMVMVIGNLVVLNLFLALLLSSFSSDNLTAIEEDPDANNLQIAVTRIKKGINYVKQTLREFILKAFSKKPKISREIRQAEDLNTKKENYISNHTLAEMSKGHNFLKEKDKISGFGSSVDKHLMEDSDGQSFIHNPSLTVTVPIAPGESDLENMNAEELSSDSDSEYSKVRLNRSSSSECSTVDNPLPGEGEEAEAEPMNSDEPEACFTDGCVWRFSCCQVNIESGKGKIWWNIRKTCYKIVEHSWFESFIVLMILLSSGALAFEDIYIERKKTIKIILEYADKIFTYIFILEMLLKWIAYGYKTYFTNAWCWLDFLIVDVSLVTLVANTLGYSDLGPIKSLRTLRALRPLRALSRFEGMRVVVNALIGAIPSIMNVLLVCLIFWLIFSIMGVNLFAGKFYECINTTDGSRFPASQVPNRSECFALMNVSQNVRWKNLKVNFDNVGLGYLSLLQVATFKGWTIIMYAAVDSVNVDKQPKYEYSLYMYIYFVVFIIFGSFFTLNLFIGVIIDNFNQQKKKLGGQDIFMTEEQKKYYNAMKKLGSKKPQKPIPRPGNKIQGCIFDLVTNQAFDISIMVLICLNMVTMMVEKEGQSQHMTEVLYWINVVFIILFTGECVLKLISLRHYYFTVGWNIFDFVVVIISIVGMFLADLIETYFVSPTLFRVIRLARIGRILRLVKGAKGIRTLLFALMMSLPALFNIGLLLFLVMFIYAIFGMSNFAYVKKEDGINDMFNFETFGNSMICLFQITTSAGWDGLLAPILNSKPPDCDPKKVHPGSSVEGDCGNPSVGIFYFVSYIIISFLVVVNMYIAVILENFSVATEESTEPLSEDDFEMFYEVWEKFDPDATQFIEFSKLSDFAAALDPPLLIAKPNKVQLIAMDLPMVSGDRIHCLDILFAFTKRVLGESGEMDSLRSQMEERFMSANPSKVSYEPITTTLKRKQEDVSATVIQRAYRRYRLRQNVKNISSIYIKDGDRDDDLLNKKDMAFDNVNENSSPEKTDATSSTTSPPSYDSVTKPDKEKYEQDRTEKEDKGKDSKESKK
T3 sequence (Q07699 19-218, further chain): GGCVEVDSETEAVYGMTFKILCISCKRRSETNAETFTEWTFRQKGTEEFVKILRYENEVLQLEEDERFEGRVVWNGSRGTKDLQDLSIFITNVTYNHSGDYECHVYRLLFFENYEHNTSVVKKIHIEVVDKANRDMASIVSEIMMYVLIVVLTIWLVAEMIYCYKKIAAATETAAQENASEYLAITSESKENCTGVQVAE

`Nc1ccncc1` [4-AP, 4-aminopyridine]: in data set [1], the “effect on action potential duration (APD), 4-AP” value is given as “significantly prolonged”.
For the compound `CC(C)C[C@H](NC(=O)[C@H](CC(=O)O)NC(=O)[C@H](Cc1ccc(O)cc1)NC(=O)[C@H](CCCCN)NC(=O)[C@@H]1CSSC[C@@H]2NC(=O)[C@H](CCC(N)=O)NC(=O)[C@H](CC(=O)O)NC(=O)[C@H](CC(N)=O)NC(=O)[C@H](CO)NC(=O)[C@@H]3CCCN3C(=O)[C@H](CC(N)=O)NC(=O)[C@@H]3CSSC[C@H](NC(=O)[C@H](C(C)C)NC(=O)[C@H](CC(C)C)NC(=O)[C@H](CO)NC(=O)[C@H](CO)NC(=O)[C@H](CO)NC(=O)[C@H](CCCCN)NC(=O)[C@H](CSSC[C@H](NC(=O)[C@H](C)N)C(=O)N[C@@H](CC(C)C)C(=O)NCC(=O)N[C@@H](Cc4ccccc4)C(=O)NCC(=O)N[C@@H](CCC(=O)O)C(=O)N[C@@H](CCCCN)C(=O)N3)NC2=O)C(=O)N[C@@H](CO)C(=O)N[C@@H](CCC(N)=O)C(=O)N[C@@H](CCCCN)C(=O)N[C@@H](Cc2c[nH]cn2)C(=O)N[C@@H](CCCCN)C(=O)N[C@@H](Cc2c[nH]c3ccccc23)C(=O)N1)C(N)=O` [Ca2a], the “Hill coefficients on rKv4.2” value on rKv4.2 (Hill fit of concentration-response curves, mean ± S.E.M., n = 4-8) is recorded as 1.05 ± 0.17. Besides, on rKv4.2, the “rKv4.2 voltage dependence of activation, V1/2 with toxin” value came to 42.0±2.1 mV and the “rKv4.2 voltage dependence of inactivation, V1/2 with toxin” value is recorded as -54.3±1.4 mV. On rKv4.3 (SEM), the “rKv4.3 voltage dependence of activation, V1/2 with toxin” value is on record as 59.0±3.0 mV and the “rKv4.3 voltage dependence of inactivation, V1/2 with toxin” value is given as -48.1±2.0 mV. At rKv4.3 (setting [5]), the “rKv4.3 voltage dependence of activation, κ with toxin” value is given as 12.2±0.9 mV and the “rKv4.3 voltage dependence of inactivation, κ with toxin” value is 4.5±0.2 mV. Moreover, the “influence on the steady-state inactivation of rKv4.3” value at rKv4.3 (sub-saturation concentration) was “almost no influence”.
For `CC[C@H](C)[C@H](NC(=O)[C@H](CCCCN)NC(=O)[C@H](Cc1ccc(O)cc1)NC(=O)[C@H](CCCCN)NC(=O)[C@@H]1CSSC[C@@H]2NC(=O)[C@H](CCC(=O)O)NC(=O)[C@H](CC(=O)O)NC(=O)[C@H](CCCCN)NC(=O)CNC(=O)[C@@H]3CCCN3C(=O)[C@H]([C@@H](C)O)NC(=O)[C@@H]3CSSC[C@H](NC(=O)[C@H](C(C)C)NC(=O)[C@H](Cc4c[nH]cn4)NC(=O)[C@H](CC(N)=O)NC(=O)[C@@H]4CCCN4C(=O)[C@H](CSSC[C@H](NC(=O)[C@H](C)N)C(=O)N[C@@H](CCCCN)C(=O)NCC(=O)N[C@@H]([C@@H](C)CC)C(=O)N[C@@H](Cc4ccccc4)C(=O)N[C@@H](C(C)C)C(=O)N[C@@H]([C@@H](C)O)C(=O)N3)NC2=O)C(=O)N[C@@H](CO)C(=O)N[C@@H](CO)C(=O)N[C@@H](CCCCN)C(=O)N[C@@H](Cc2c[nH]cn2)C(=O)N[C@@H](CCCCN)C(=O)N[C@@H](Cc2c[nH]c3ccccc23)C(=O)N1)C(N)=O` [Cl6b] (H-ACKGIFVTCTPGKDECCPNHVCSSKHKWCKYKI-NH2; disulfide 2-17, 9-22, 16-29), in data set [2], the “effect on the current traces of other Kv channels” value is listed as “no obvious or only minimal effect”.
As to `CC(C)C[C@@H]1NC(=O)[C@H](Cc2ccc(O)cc2)NC(=O)[C@H](CC(N)=O)NC(=O)[C@H](CCCCN)NC(=O)[C@@H]2CSSC[C@H](NC(=O)CNC(=O)[C@@H](N)CCCCN)C(=O)N[C@@H](CCCCN)C(=O)NCC(=O)N[C@@H](Cc3ccccc3)C(=O)NCC(=O)N[C@@H](CC(=O)O)C(=O)N[C@@H](CO)C(=O)N[C@H]3CSSC[C@H](NC1=O)C(=O)N[C@@H](CO)C(=O)N[C@@H](CO)C(=O)N[C@@H](CCCCN)C(=O)N[C@@H](Cc1c[nH]cn1)C(=O)N[C@@H](CCCCN)C(=O)N[C@@H](Cc1c[nH]c4ccccc14)C(=O)N[C@H](C(=O)N[C@@H](CCCCN)C(=O)N[C@H](C(=O)N[C@@H](Cc1ccc(O)cc1)C(=O)N[C@@H](CC(C)C)C(=O)N[C@H](C(N)=O)C(C)C)C(C)C)CSSC[C@H](NC(=O)[C@H](CCC(=O)O)NC(=O)[C@H](CC(N)=O)NC(=O)[C@H](CCCCN)NC(=O)CNC(=O)[C@@H]1CCCN1C(=O)[C@H]([C@@H](C)O)NC3=O)C(=O)N2` [HNTX-III-H4] (H-KGCKGFGDSCTPGKNECCKNYLCSSKHKWCKVYLV-NH2; disulfide 3-18, 10-23, 17-30; N-terminus and C-terminus assumed), the “improved potency for rKv4.3” value on rKv4.3 (vs HNTX-III) was determined as 45 fold. For the same compound, the “improved potency on hNav1.7 currents” value at hNav1.7 [3] is recorded as 30 fold.
Turning to `CC(C)C[C@H](NC(=O)[C@H](C)NC(=O)[C@@H](NC(=O)[C@H](CCCCN)NC(=O)[C@@H]1CSSC[C@@H]2NC(=O)[C@H](CCC(=O)O)NC(=O)[C@H](CC(N)=O)NC(=O)[C@H](CCCCN)NC(=O)CNC(=O)[C@@H]3CCCN3C(=O)[C@H]([C@@H](C)O)NC(=O)[C@@H]3CSSC[C@H](NC(=O)[C@H](C)NC(=O)[C@H](Cc4ccc(O)cc4)NC(=O)[C@H](CC(N)=O)NC(=O)[C@@H]4CCCN4C(=O)[C@H](CSSC[C@H](NC(=O)CN)C(=O)N[C@@H](CCCCN)C(=O)NCC(=O)N[C@@H](Cc4ccccc4)C(=O)NCC(=O)N[C@@H](CC(=O)O)C(=O)N[C@@H](CO)C(=O)N3)NC2=O)C(=O)N[C@@H](CO)C(=O)N[C@@H](CO)C(=O)N[C@@H](CCCCN)C(=O)N[C@@H](Cc2c[nH]cn2)C(=O)N[C@@H](CCCCN)C(=O)N[C@@H](Cc2c[nH]c3ccccc23)C(=O)N1)C(C)C)C(N)=O` [Y32A] (H-GCKGFGDSCTPGKNECCPNYACSSKHKWCKVAL-NH2; disulfide 2-17, 9-22, 16-29), the IC50 on hNav1.7 [4] (mean ± SEM, this study, read-out: IC50 on hNav1.7) is 936 ± 123 nM; on rKv4.2 (mean ± SEM, read-out: IC50 on rKv4.2 WT) it was 1000 ± 177 nM.
On to `CC[C@H](C)[C@@H]1NC(=O)[C@@H]2CSSC[C@@H]3NC(=O)[C@H](C(C)C)NC(=O)[C@H](CC(C)C)NC(=O)[C@H](CC(N)=O)NC(=O)[C@@H]4CCCN4C(=O)[C@H](CCCNC(=N)N)NC(=O)[C@H](CSSC[C@H](NC(=O)[C@@H](N)CC(=O)O)C(=O)N[C@@H](CC(C)C)C(=O)NCC(=O)N[C@@H](C)C(=O)N[C@@H](Cc4ccccc4)C(=O)N[C@@H](CCCNC(=N)N)C(=O)N[C@@H](CCCCN)C(=O)N2)NC(=O)[C@H](CSSC[C@@H](C(=O)N[C@@H](CCCCN)C(=O)N[C@@H](Cc2ccc(O)cc2)C(=O)N[C@H](C(=O)N[C@@H](Cc2ccccc2)C(N)=O)C(C)C)NC(=O)[C@H](Cc2c[nH]c4ccccc24)NC(=O)[C@H](CCCNC(=N)N)NC(=O)[C@H](Cc2c[nH]cn2)NC(=O)[C@H](CC(C)C)NC(=O)[C@H](C)NC(=O)[C@H](CO)NC3=O)NC(=O)[C@H](CCCCN)NC(=O)[C@H](CC(=O)O)NC(=O)[C@H](CC(N)=O)NC(=O)[C@H](CC(=O)O)NC(=O)[C@@H]2CCCN2C1=O` [mGpTx1-R25A] (H-DCLGAFRKCIPDNDKCCRPNLVCSALHRWCKYVF-NH2; disulfide 2-17, 9-23, 16-30), for which the IC50 at hNav1.7 [4] (hNav1.7 with β1 and β2, held at -90 mV, step to 0 mV, mean ± S.E.M., n = 3-7, read-out: IC50 for hNav1.7) is 1.3 ± 0.1 nM; on rKv4.2 (held at -80 mV, step to 0 mV, mean ± S.E.M., read-out: IC50 for rKv4.2), 57.2 ± 6.2 nM.
